Data reported in patent US7576109B2, “1,3,4-oxadiazol-2-ones as PPAR delta modulators and their use thereof” (Aventis Pharmaceuticals Inc., priority 2004, dated 2009).

System: rat oligodendrocyte cultures
Experiment: Primary rat oligodendrocyte differentiation assay (myelin basic protein expression)
Type: cell-based
Conditions: primary rat oligodendrocytes, compared to untreated controls
Source text: • 1. Primary rat oligodendrocyte progenitor cells are obtained from the neocortex of newborn (postnatal days 2-3) rats or mice and are enriched, after removal of microglia, by mechanical separation from the astrocytic monolayer using a modification of the technique originally described by McCarthy and de Vellis (1980). • 2. Remove the meninges from neonatal rat brain and mechanically dissociate tissue. Plate cells on T75 flasks and feed cells with DMEM/F12+10% FBS. • 3. Collect oligodendrocytes growing on the astrocyte bed layer by shaking-off method fourteen days after the original prep date. Centrifuge the suspension and resuspend the cell pellet in serum free media (SFM; DMEM combined with 25 μg/ml transferring, 30 nM triiodothyronine, 20 nM hydrocortisone, 20 nM progesterone, 10 nM biotin, 1× trace elements, 30 nM selenium, 1 μg/ml putrescine, 0.1% BSA, 5 U/ml PenStrep, 10 μg/ml insulin) supplemented with the following growth factors: Platelet derived growth factor-AA (PDGF) and fibroblast growth factor-2 (FGF). • 4. Plate the cells on PDL-coated dishes and incubate at 37° C. with 6-7% CO2. • 5. Media components are replaced every 48 hr to keep the cells in a progenitor state. Progenitor Cell Passaging to Increase Cell Numbers for Screening Assays: • 1. When the culture are confluent, rinse the culture with PBS, add trypsin and incubate for ˜2-3 min at 37° C. • 2. Neutralize and centrifuge the cell suspension at 900 g for 5 min. • 3. Resuspend the cell pellet in SFM+PDGF/FGF. • 4. Feed the cells with fresh growth factors every 48 hrs to keep enrich for rapidly dividing progenitor cells. • 5. Cells are passaged no more than 4-5 times prior to experimental assays. • 6. All experiments involving oligodendrocyte progenitor cells were done using cells that were continuously maintained under these conditions. Greater than 95% of all cells were A2B5 immunopositive and expressed 2′3′-cyclic nucleotide 3′-phosphodiesterase II mRNA. • 7. To generate mature oligodendrocytes, 24 h after plating progenitor cells were switched to SFM supplemented with or without IGF-I and grown under these conditions for 7 d prior to experimental assays. • 8. Alternatively, the enriched rat Central Glia-4 (CG4) progenitor cell line may be used, which is maintained in base media (DMEM, with 2 mM glutamine, 1 mM sodium pyruvate, biotin (40 nM), insulin (1 μM) and N1) supplemented with 30% conditioned media from the B-104 neuroblastoma cell line. To induce differentiation, CG4 cells are switched to base media with 1% fetal calf serum (removed after 2 days) and insulin (500 nM). A2B5 and MBP immunoreactivity is used to confirm >95% enrichment in immature and mature cultures, respectively. Rat/Mouse Culture Compound Treatment: • 1. […]

SMILES | Fold Increase in Myelin Basic Protein Expression in Oligodendrocyte Differentiation Assay (concentration 1 μM) | Fold Increase in Myelin Basic Protein Expression in Oligodendrocyte Differentiation Assay (concentration 10 μM)
Cc1nc(-c2ccc(C(F)(F)F)cc2)sc1COCc1ccc(-c2n[nH]c(=O)o2)cc1 [Example 14] | 1.5 fold (1) | –
CCCCc1nc(-c2ccc(C(F)(F)F)cc2)sc1COc1ccc(-c2n[nH]c(=O)o2)c(Cl)c1 [Example 23] | 2 fold (1) | –
Cc1nc(-c2ccc(C(F)(F)F)cc2)sc1COc1ccc(-c2n[nH]c(=O)o2)cc1 [Example 10, 5-{4-[4-Methyl-2-(4-trifluoromethyl-phenyl)-thiazol-5-ylmethoxy]-phenyl}-3H-[1,3,4]oxadiazol-2-one] | – | 1.5 fold (10)
CCCCc1nc(-c2ccc(C(F)(F)F)cc2)sc1COc1ccc(Cc2n[nH]c(=O)o2)cc1 [Example 31, 5-{4-[4-Butyl-2-(4-trifluoromethyl-phenyl)-thiazol-5-ylmethoxy]-benzyl}-3H-[1,3,4]oxadiazol-2-one] | 2 fold (1) | –
